One may read the IC50 as the concentration that inhibits the measured activity by half.

Among the data in ChEMBL document CHEMBL1134483, “Quinazolin-4-one alpha-amino-3-hydroxy-5-methyl-4-isoxazolepropionic acid (AMPA) receptor antagonists: structure-activity relationship of the C-2 side chain tether” (J Med Chem, 2001) are IC50 values, retold here.

The experiment concerns the target Glutamate receptor ionotropic, AMPA (Rattus norvegicus, UniProt P19490+P19491+P19492+P19493). Nature of the experiment: Inhibition of Ca 2+ Influx in cultured rat cerebellar granule cells, mediated by ionotropic glutamate receptor AMPA. Type of experiment: functional.
With `CC(=O)N(Cc1nc2ccc(F)cc2c(=O)n1-c1ccccc1Cl)c1ccccc1F`, the IC50 is greater than 3 µM.

For the molecule `O=c1c2cc(F)ccc2nc(CNCc2ccccc2F)n1-c1ccccc1Cl`, the IC50 was greater than 0.3 µM. Molecule `N#Cc1ccccc1NCc1nc2ccc(F)cc2c(=O)n1-c1ccccc1Cl` displayed an IC50 of 0.042 µM. The figure for `O=c1c2cc(F)ccc2nc(/C(O)=C/c2ccccc2F)n1-c1ccccc1Cl` is greater than 30 µM; for `O=c1c2cc(F)ccc2nc(COc2ccccc2F)n1-c1ccccc1Cl` it is greater than 10 µM; for `O=c1c2cc(F)ccc2nc(CC(O)c2ccccc2F)n1-c1ccccc1Cl` (stereo in doubt; 3b) it is greater than 3 µM. Then `O=c1c2cc(F)ccc2nc(CNc2ccccc2F)n1-c1ccccc1Cl`, with 0.013 µM; and `O=c1c2cc(F)ccc2nc(CC(O)c2ccccc2F)n1-c1ccccc1Cl` (stereo in doubt; 3a), with 0.24 µM; and `Cc1cccc(NCc2nc3ccc(F)cc3c(=O)n2-c2ccccc2Cl)c1`, with 0.213 µM.

Regarding `CN(Cc1nc2ccc(F)cc2c(=O)n1-c1ccccc1Cl)c1ccccc1F`, inhibition was half-maximal at 2 µM (IC50).
